Where two headings read alike, the source gives them in different places. Marks after values point to notes of the source that are not given here.

We go through 15 compounds from publication PMC4097020 (Psychopharmacology, 2014).

One data set deals with T1, h5-HT2C receptor (Homo sapiens, UniProt P28335).
T1 sequence (P28335 33-458): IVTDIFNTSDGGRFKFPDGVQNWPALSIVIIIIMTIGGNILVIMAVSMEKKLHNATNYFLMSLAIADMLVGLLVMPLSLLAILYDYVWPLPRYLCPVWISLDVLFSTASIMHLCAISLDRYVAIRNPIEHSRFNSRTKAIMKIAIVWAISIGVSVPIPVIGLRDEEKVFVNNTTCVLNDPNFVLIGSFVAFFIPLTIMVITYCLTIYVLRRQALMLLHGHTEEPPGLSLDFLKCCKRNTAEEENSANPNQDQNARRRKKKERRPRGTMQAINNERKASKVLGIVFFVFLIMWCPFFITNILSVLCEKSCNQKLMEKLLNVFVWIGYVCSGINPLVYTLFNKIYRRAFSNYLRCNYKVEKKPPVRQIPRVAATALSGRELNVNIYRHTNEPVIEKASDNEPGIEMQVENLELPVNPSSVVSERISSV
In words: cell-based.

Data set [1] concerns the target T2, recombinant human 5-HT1A receptor (Homo sapiens, UniProt P08908).
T2 sequence (P08908 1-422): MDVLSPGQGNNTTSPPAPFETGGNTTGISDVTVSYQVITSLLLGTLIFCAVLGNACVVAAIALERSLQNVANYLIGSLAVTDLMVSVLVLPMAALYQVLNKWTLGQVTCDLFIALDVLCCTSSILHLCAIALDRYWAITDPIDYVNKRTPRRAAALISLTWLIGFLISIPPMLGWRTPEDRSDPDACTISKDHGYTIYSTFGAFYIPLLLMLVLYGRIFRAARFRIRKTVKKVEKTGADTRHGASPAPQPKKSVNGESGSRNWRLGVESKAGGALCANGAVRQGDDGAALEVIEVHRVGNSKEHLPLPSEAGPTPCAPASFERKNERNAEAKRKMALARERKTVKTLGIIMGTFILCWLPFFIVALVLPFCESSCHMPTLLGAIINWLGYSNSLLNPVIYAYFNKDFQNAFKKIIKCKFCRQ
In words: [3H]8-OH-DPAT binding to HEK-h5-HT1A cell membranes.

The target of data set [2] is T3, recombinant human 5-HT2C receptor (Homo sapiens, UniProt P28335).
T3 sequence (P28335 33-458): T1 sequence (P28335 33-458)
In words: biochemical. The data set is classed as binding.

Data set [3] has as its target recombinant human 5-HT2A receptor (Homo sapiens, UniProt P28223). In words: [125I]DOI binding to HEK-h5-HT2A cell membranes.
Data set [4] addresses T4, h5-HT2A receptor (Homo sapiens, UniProt P28223). In words: IP-1 formation in HEK-h5-HT2A cells. Format: cell-based. The following applies: for agonist character at h5-HT2A receptor, IP-1 formation (in words): compared to 5-HT.
The target in data set [5] is T4, h5-HT2A receptor. Format: binding.
Data set [6] concerns the target T4, h5-HT2A receptor. The data set is classed as binding. This is another data set of the same source.
In data set [7] the test system is nontransfected HEK-293 cells. In words: IP-1 accumulation in nontransfected HEK-293 cells. The data set is classed as cell-based, human. The settings on record: (+)mefloquine 100 μM, 5-HT 1 μM, LSD 10 nM.
In data set [8] the target is T5, recombinant human D2 receptor (Homo sapiens, UniProt P14416). In words: biochemical. The data set is classed as binding.
Data set [9] addresses T6, recombinant human D3 receptor (Homo sapiens, UniProt P35462). The settings on record: for agonist activity at hD3 receptor, mitogenesis (in words): compared to quinpirole.
The target in data set [10] is T6, recombinant human D3 receptor. In words: [3H]YM 09151-2 binding to CHOp-D3 cells.
The target in data set [11] is T5, recombinant human D2 receptor. In words: cell-based. The data set is classed as cell-based.
The next data set deals with T7, human D4.4 receptor (Homo sapiens, UniProt P21917).
T7 sequence (P21917 1-419): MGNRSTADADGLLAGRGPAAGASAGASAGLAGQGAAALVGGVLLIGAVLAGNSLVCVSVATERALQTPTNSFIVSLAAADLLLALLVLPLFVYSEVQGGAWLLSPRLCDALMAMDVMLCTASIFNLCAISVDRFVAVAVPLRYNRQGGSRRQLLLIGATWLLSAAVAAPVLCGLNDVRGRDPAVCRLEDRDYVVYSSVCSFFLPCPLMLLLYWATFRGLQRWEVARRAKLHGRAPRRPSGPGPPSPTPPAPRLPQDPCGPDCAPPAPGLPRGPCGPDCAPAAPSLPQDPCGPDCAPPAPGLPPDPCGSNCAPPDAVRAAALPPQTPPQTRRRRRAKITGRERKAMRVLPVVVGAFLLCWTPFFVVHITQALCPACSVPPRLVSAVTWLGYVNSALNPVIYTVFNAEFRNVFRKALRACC
In words: biochemical. The data set is classed as binding.

For data set [12], the target named is recombinant human D1 receptor (Homo sapiens, UniProt P21728). In words: [3H]SCH23390 binding to LhD1 cells. The settings on record: read-out: D1 [3H]SCH23390 Ki (nM) ± SEM.
In data set [13] the target is T8, recombinant human norepinephrine transporter (Homo sapiens, UniProt P23975). In words: biochemical. The data set is classed as binding.
For data set [14] the following is noted: prophylactic use; from 8.7 to 14 mg/kg with free/whole brain ratio […].
The conditions of data set [15]: varies by preparation, ref Wiedekam et al., 1998, cited from earlier work.
Data set [16] concerns the target T9, recombinant human dopamine transporter (Homo sapiens, UniProt Q01959). In words: [3H]dopamine uptake by HEK-hDAT cells. Format: cell-based.
In data set [17] the target is T9, recombinant human dopamine transporter. In words: [125I]RTI-55 binding to HEK-hDAT cells.
The target in data set [18] is T8, recombinant human norepinephrine transporter. In words: cell-based.
[19] abbreviates: read-out: D2 [3H]YM 09151-2 Ki, in μM.
Setting [20] is: read-out: D4.4 [3H]YM 09151-2 Ki, in μM.
[21] abbreviates: read-out: h5-HT2C [125I]DOI Ki (nM) ± SEM, HEK-h5-HT2C membranes.

T4 sequence (P28223 whole entry): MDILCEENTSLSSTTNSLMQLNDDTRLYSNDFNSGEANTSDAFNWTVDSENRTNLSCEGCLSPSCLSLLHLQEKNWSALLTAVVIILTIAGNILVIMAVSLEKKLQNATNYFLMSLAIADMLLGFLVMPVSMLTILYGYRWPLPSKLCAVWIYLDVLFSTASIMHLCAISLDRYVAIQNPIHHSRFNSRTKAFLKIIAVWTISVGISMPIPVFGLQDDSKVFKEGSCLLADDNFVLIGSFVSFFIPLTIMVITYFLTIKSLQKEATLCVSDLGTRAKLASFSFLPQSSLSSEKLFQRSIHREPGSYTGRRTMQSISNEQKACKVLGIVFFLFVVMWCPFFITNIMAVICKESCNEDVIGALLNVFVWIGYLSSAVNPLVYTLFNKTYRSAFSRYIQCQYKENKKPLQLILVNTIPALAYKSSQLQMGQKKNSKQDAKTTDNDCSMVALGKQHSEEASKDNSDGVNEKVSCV
T5 sequence (P14416 whole entry): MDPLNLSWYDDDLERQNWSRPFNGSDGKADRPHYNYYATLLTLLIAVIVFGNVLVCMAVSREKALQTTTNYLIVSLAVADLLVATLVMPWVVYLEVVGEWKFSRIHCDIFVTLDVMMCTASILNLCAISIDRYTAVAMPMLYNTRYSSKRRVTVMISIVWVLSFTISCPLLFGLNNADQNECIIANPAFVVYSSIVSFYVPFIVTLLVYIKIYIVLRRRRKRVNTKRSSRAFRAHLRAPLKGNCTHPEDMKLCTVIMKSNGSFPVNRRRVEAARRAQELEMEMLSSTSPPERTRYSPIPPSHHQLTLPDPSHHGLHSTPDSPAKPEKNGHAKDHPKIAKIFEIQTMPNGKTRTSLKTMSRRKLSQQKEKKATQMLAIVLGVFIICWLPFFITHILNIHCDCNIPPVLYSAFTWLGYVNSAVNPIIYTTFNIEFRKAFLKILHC
T6 sequence (P35462 whole entry): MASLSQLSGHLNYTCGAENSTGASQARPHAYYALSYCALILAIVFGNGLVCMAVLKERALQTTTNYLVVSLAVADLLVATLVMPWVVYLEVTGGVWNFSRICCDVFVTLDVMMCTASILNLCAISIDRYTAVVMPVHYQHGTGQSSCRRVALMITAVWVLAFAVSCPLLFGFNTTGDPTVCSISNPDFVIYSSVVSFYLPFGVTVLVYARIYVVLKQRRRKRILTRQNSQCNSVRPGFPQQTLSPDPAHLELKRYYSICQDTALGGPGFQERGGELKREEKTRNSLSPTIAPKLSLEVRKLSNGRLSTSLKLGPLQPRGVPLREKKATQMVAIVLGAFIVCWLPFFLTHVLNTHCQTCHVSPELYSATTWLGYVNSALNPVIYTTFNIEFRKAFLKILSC
T8 sequence (P23975 whole entry): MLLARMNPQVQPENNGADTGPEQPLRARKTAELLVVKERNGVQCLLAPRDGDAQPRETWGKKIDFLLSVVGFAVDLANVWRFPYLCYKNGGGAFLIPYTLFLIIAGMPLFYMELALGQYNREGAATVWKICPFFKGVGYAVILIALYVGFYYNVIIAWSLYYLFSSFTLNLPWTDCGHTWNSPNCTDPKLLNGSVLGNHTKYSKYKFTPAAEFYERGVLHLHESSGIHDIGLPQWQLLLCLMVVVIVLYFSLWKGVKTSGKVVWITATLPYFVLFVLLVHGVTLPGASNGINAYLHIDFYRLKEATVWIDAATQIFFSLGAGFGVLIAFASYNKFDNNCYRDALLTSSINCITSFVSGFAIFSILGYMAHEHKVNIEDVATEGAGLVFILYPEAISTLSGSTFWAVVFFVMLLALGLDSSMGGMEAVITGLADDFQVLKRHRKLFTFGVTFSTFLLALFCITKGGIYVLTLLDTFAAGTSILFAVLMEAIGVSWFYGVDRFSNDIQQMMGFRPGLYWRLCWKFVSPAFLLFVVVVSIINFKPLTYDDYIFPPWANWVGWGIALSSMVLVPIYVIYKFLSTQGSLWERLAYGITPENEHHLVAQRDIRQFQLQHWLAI
Sequence of recombinant human 5-HT2A receptor (P28223 whole entry): as the sequence (P28223 whole entry) above
T9 sequence (Q01959 whole entry): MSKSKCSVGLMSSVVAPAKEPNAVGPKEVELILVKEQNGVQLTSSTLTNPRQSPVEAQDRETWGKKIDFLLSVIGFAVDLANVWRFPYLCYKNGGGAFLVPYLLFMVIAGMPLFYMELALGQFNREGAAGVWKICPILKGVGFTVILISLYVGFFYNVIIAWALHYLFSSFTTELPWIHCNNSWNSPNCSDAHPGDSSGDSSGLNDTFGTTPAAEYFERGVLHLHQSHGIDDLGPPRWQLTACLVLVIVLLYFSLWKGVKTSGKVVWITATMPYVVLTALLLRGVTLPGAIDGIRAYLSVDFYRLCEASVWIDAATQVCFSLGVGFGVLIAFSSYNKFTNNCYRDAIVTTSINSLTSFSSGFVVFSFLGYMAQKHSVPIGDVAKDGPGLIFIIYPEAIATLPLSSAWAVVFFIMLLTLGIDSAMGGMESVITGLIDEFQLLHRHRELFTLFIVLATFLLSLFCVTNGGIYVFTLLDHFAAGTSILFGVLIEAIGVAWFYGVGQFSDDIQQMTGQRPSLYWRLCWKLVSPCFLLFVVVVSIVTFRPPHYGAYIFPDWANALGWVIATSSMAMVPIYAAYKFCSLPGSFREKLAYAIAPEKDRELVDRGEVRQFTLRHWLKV
Sequence of recombinant human D1 receptor (P21728 whole entry): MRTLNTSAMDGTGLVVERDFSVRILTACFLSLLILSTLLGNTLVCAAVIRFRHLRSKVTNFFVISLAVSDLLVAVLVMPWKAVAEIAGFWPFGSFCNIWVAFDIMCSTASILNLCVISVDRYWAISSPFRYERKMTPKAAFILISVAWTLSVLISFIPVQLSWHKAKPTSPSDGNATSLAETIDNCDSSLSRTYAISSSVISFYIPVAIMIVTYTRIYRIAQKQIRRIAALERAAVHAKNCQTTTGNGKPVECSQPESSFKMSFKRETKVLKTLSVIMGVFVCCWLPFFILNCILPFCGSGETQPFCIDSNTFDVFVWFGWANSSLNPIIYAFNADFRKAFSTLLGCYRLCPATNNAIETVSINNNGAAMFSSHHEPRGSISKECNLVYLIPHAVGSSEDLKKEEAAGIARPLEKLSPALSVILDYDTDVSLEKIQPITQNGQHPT

At h5-HT2C receptor, `Cc1cc2c(cc1Cl)N(C(=O)Nc1ccc(Oc3cccnc3C)nc1)CC2` [SB242087] showed an IC50 of 0.167 ± 0.061 nM. Further, the “h5-HT2C IP1 formation % inhibition” value at h5-HT2C receptor came out at 93.7 ± 5.5%. Besides, the inhibition constant (Ki) in data set [1] was greater than 9300 nM; in data set [2] it was 11.4 ± 4 nM; in [3] it was 120 ± 32 nM.
As to `COc1cc(CC(C)N)c(OC)cc1C` (centres unmarked) [DOM, 2,5-dimethoxy-4-methylamphetamine], the inhibitory constant (Ki) is 14200 nM in [1], 2.06 ± 0.52 nM at h5-HT2A receptor [5], 4.3 ± 1.2 nM in data set [3] and 13.7 ± 6 nM at h5-HT2A receptor [6]. Besides, the response at h5-HT2A receptor [4] was half-maximal at 24.7 ± 8.5 nM (EC50). The “agonist character at h5-HT2A receptor, IP-1 formation (in words)” value (“agonist character at h5-HT2A receptor” below) on h5-HT2A receptor [4] is on record as “full agonists”. Moreover, at h5-HT2A receptor [6] (h5-HT2A, Ki [3H]ketanserin over Ki [125I]DOI), the “Ratio ketanserin/DOI Ki” value is 6.65 ^**.
In the case of `CCN(CC)C(=O)[C@@H]1C=C2c3cccc4[nH]cc(c34)C[C@H]2N(C)C1` [LSD, lysergic acid diethylamide], the “effect on IP-1 accumulation in nontransfected cells (in words)” value (shortened to “effect on IP-1 accumulation”) in data set [7] was “no effect”. Also, the inhibition constant Ki in data set [8] (read-out: D2 [3H]YM 09151-2 Ki (nM) ± SEM) is 38.8 ± 1.8 nM; in [10] (read-out: D3 [3H]YM 09151-2 Ki (nM) ± SEM), 27.1 ± 1.3 nM; on human D4.4 receptor (read-out: D4.4 [3H]YM 09151-2 Ki (nM) ± SEM), 330 ± 120 nM; in data set [12], 273 ± 89 nM; in [13] (read-out: Norepinephrine transporter, inhibition of [125I]RTI-55 binding Ki (nM) ± SEM), 5600 nM. Further, the “agonist activity at hD3 receptor, mitogenesis (in words)” value in data set [9] is reported as “full agonist”. Besides, the “D3 mitogenesis % stimulation” value in data set [9] (normalized to the maximal stimulation by quinpirole) is recorded as 104.4 ± 6.1%. Further, the concentration for a half-maximal effect (EC50) worked out at 48 ± 14 nM in [9] (read-out: D3 mitogenesis EC50 (nM) ± SEM (n), agonist mode, NC: the data did not converge) and 18.1 nM in data set [11] (read-out: D2 mitogenesis EC50 (nM) ± SEM (n)). Besides, the “D2 mitogenesis % stimulation” value in data set [11] was 47.9 ± 6.2%. Besides, the “agonist activity at hD2 receptor, mitogenesis (in words)” value in data set [11] was “partial agonist”. The “agonist character at h5-HT2A receptor” value at h5-HT2A receptor [4] is listed as “full agonists”.
Turning to `OC(c1cc(C(F)(F)F)nc2c(C(F)(F)F)cccc12)C1CCCCN1` (stereo not drawn) [mefloquine, [(R*, S*)-2,8-bis(trifluoromethyl)quinolin-4-yl]-(2-piperidyl)methanol], in data set [14], the “free mefloquine in brain, translated from brain levels” value is 100 to 135 nM. For the same compound, the values for the Cmax in data set [15] (conversion of 1018 μg/L) and in data set [15] were roughly 2600 nM and 1018 ng/mL, respectively. The “increase of IP-1 above basal activity in transfected cells” value at h5-HT2A receptor [4] (HEK-h5-HT2A and HEK-h5-HT2C transfected cells together, 100 μM (+)mefloquine, Fig 2c) was 3–5 fold.
In the case of `CC(C)(C)[C@]1(O)CCN2C[C@H]3c4ccccc4CCc4cccc(c43)[C@@H]2C1` [Butaclamol], in data set [11] (read-out: D2 mitogenesis % inhibition), the inhibition at 0.03 µM came out at 98.1 ± 1.9%.
Consider `C=C[C@H]1C[N@@]2CC[C@H]1C[C@H]2[C@H](O)c1ccnc2ccc(OC)cc12` [Quinine, (R)-(6-Methoxyquinolin-4-yl)((2S,4S,8R)-8-vinylquinuclidin-2-yl)methanol], for which the IC50 in [16] and in data set [18] was greater than 10000 nM in each case. The inhibition constant (Ki) was greater than 8300 nM in [17] and greater than 5500 nM in [13].
With `CN1CCc2cc(Cl)c(O)cc2C(c2ccccc2)C1` (centres unmarked) [SCH23390, 7-chloro-3-methyl-1-phenyl-1,2,4,5-tetrahydro-3-benzazepin-8-ol], the Ki in data set [8] amounted to 887 ± 17 nM; on human D4.4 receptor, 9700 ± 1100 nM.
Consider `CN(C)CCc1c[nH]c2ccccc12` [DMT, N,N-dimethyltryptamine], for which, at h5-HT2A receptor [4], a half-maximal effect (EC50) was put at 227 ± 64 nM and the “agonist character at h5-HT2A receptor” value is “partial agonist”. The Ki on h5-HT2A receptor [5] came out at 53 ± 10 nM. For the same compound, the affinity on h5-HT2A receptor [6] corresponds to a Ki of 175 ± 42 nM.
Consider `NCCc1c[nH]c2ccc(O)cc12` [5-HT, serotonin], for which the “effect on IP-1 accumulation” value in [7] was “no effect”.
Turning to `OC(c1cc(C(F)(F)F)nc2c(C(F)(F)F)cccc12)C1CCCCN1` (single isomer, unassigned; (-)) [(−)-Mefloquine], the inhibition constant (Ki) (in data set [8] (setting [19]); on human D4.4 receptor (setting [20])) was greater than 10000 nM in each case.
Take `C[C@H](N)Cn1ccc2cc(F)c(Cl)cc21` [Ro60-0175]: the Ki in [2] (setting [21]) is 7.3 ± 1.6 nM.
As for `O[C@H](c1cc(C(F)(F)F)nc2c(C(F)(F)F)cccc12)[C@@H]1CCCCN1` [(+)-Mefloquine], the “effect on IP-1 accumulation” value in [7] was “no effect”. In addition, the inhibition constant Ki (in data set [8] (setting [19]); on human D4.4 receptor (setting [20])) was greater than 10000 nM throughout. Also, the “antagonist activity at D3 receptor, mitogenesis (in words)” value in [9] (against quinpirole) is “fully antagonized”. The “D3 mitogenesis % inhibition” value in data set [9] (antagonism of quinpirole (30 nM)-stimulated mitogenesis) was found to be 97.3 ± 2.7%. Moreover, the “agonist activity at hD3 receptor, mitogenesis (in words)” value in data set [9] was “no agonist activity”. The “antagonist activity at D2 receptor, mitogenesis (in words)” value in [11] (against quinpirole) was “no antagonist activity”. For the same compound, the “agonist activity at hD2 receptor, mitogenesis (in words)” value in [11] (compared to quinpirole) is listed as “no agonist activity”.
Turning to `Oc1cc2c(cc1O)C(c1ccccc1)CNCC2` (centres unmarked) [SKF 38393, 1-phenyl-2,3,4,5-tetrahydro-1H-3-benzazepine-7,8-diol], the figures for the Ki (in data set [10]; at human D4.4 receptor) were 4300 ± 1800 nM and 28000 ± 13000 nM, respectively.
In the case of `CCN(CC)CCCC(C)Nc1ccnc2cc(Cl)ccc12` (racemic) [Chloroquine, (RS)-N′-(7-chloroquinolin-4-yl)-N, N-diethyl-pentane-1,4-diamine], the inhibition constant (Ki) on human D4.4 receptor is greater than 10000 nM.
Take `COc1ccccc1N1CCN(CCN(C(=O)C2CCCCC2)c2ccccn2)CC1` [WAY 100635]: in [2] (setting [21]), the Ki was 3000 nM.
